Patent publication US5439919A, “Arylglycinamide derivatives and preparative processes therefor” (Kyorin Pharmaceutical Co., Ltd., priority 1992, dated 1995)
Counter-ions that a name gives are not always drawn.

Key:
muscarinic receptor = biological target: T1, muscarinic receptor (Cavia porcellus, UniProt H0W1Z3); assay: Anticholinergic action on the specimen of isolated guinea pig ileum; conditions: affinity to muscarinic receptor, concentration converted from pA2 value obtained from Schild's plot, acetylcholine contraction
T1 construct: from tissue; host or cells: isolated ileum of male guinea pig
T1 sequence (H0W1Z3 1-590): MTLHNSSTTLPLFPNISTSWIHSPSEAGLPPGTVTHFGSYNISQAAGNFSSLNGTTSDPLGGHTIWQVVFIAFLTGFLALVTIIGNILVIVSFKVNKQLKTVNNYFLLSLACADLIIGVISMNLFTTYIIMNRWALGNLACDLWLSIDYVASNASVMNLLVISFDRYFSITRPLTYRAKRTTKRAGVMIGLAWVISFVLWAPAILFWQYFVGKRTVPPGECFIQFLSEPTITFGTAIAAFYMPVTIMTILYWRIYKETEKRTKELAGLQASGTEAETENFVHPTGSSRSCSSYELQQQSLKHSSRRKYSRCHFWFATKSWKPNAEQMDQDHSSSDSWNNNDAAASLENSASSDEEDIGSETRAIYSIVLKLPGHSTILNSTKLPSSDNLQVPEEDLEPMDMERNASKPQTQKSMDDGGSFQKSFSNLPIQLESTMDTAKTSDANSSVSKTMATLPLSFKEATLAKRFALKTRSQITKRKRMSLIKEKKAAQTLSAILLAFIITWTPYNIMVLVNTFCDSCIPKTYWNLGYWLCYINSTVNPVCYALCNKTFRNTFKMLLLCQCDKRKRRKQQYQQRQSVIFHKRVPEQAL
Description: A specimen (length ca. 2 cm) of male guinea pig ileum was suspended into a 10 ml-organ bath filled up with Tyrode solution. The Tyrode solution was constantly gassed with 95% O2 +5% CO2 and maintained at 37 ° C. The contraction was recorded on a pen-and-ink recorder via an isotonic transducer.
Acetylcholine was added cumulatively to the bath to obtain a consistent dose-response curve and then test compound in various concentrations was investigated on the dose-response curve of acetylcholine before and after the treatment for 5 minutes. The contraction was expressed by a ratio to the maximal contraction with acetylcholine in the absence of test compound. The affinity of test compound to the muscarinic receptor was determined by converting into the concentration from pA2 value obtained from Schild's plot.

[1] = test system: urinary bladder (rhythmic bladder contraction); assay: Inhibitory action on the rhythmic bladder contraction; assay type: in vivo; conditions: rat, intraduodenal; vs oxybutynin hydrochloride
Description: A male rat was fixed in a supine position under the halothane anesthesia and, a catheter with rubber balloon was inserted into urinary bladder through a small incision of apex of bladder exposed by abdominal opening along the midline and the purse-string suture was performed. The catheter was led out of the upper abdominal part sutured and a three-way stopcock was connected thereto, to one of which a syringe was connected and to other of which a pressure transducer for measuring the intravesical pressure was connected. The rhythmic bladder contraction was induced by infusion of about 0.1 to 0.3 ml of water into the balloon and, after obtaining the constant amplitude of rhythmic bladder contraction, test compound was administered intraduodenally. The inhibitory effects were estimated by the reduction in amplitude of the bladder contraction.

urinary bladder = assay: Bladder selectivity (salivary secretion ID30 / rhythmic bladder contraction ED30); conditions: male rats, intraduodenal
Description: Male rats were given with small incision in the upper abdomen under urethane anesthesia and the test compound was administered intraduodenally. Thirty minutes later, 1 mg/kg of pilocarpine was administered subcutaneously. Saliva was collected on absorbent cotton kept in the mouth at every 30 minutes from the pilocarpine administration until 1.5 hours later. Antisecretory effects were estimated by the decrease in weight of absorbent cotton.

overactive detrusor = conditions: clinically; cited from earlier work

SMILES | Kb (muscarinic receptor) [µM] | inhibitory activity on bladder compared with oxybutynin hydrochloride [1] | bladder selectivity (inhibitory activity on the salivary secretion (ID30)/inhibitory activity on the rhythmic bladder contraction (ED30)) (urinary bladder) | adverse effects (overactive detrusor) | clinical effectiveness (overactive detrusor)
CC(C)(C)NCCNC(C(=O)NC1CCCCC1)c1ccccc1 (stereo not drawn) [Example 1, N-cyclohexyl-α-[[2-(tert-butylamino)ethyl]amino]phenylacetamide] | 0.79 | almost equal to that of oxybutynin hydrochloride | 5 |  | 
CCN(CC)C(=O)C(NCCNC(C)(C)C)c1ccccc1 (stereo not drawn) [Example 2, N, N-diethyl-α-[[2-(tert-butylamino)ethyl]amino]phenylacetamide] | 16 |  | 6 |  | 
CCN(CC)CCNC(C(=O)NC(C)(C)C)c1ccccc1 (stereo not drawn) [Example 3, N-tert-butyl-α-[[2-(diethylamino)ethyl]amino]phenylacetamide] | 3.2 |  | 4 |  | 
CCN(CC)C(=O)C(NCCNC(C)C)c1ccccc1 (stereo not shown) [Example 4] | 2 |  | 4 |  | 
CCN(CC)CCNC(C(=O)N(CC)CC)c1ccccc1 (stereo not shown) [Example 6] | 2.5 | almost equal to that of oxybutynin hydrochloride | 3 |  | 
CCN(CC)C(=O)C(NCCN(C(C)C)C(C)C)c1ccccc1 (stereo not shown) [Example 7] | 1.3 | almost equal to that of oxybutynin hydrochloride | 4 |  | 
CCN(CC)CCN(C)C(C(=O)NC(C)(C)C)c1ccccc1 (stereo not shown) [Example 14] | 5 |  | 4 |  | 
CCN(CC)CCNC(C(=O)N(C)CCc1ccc(OC)c(OC)c1)c1ccccc1 (stereo not shown) [Example 41] | 6.3 |  | 5 |  | 
CCN(CC)CC#CCOC(=O)C(O)(c1ccccc1)C1CCCCC1 (stereo not shown) [Oxybutynin hydrochloride] |  |  |  | frequently cause the adverse effects such as dry mouth and urinary retention | effective for treatment of syndrome elicited by bladder activity
CC(CC(c1ccccc1)c1ccccc1)NC(C)(C)C (stereo not shown) [Terodiline hydrochloride, reference compound] | 0.1 |  | 1 | frequently cause the adverse effects such as dry mouth and urinary retention | effective for treatment of syndrome elicited by bladder activity
